Assay results published in a melting point compilation (Tetko et al.; mined from patent text by program, amines drawn as free bases though some values may be those of a salt).

| melting point [°C] | Compound |
| --- | --- |
| 190 | COc1c(C#N)c(C#N)c(OC)c2ccccc12 |
| 286 to 287 | COc1ccc(S(=O)(=O)c2cc3c(cc2OC)OC(C)(C)[C@@H](O)[C@@H]3N2CCCC2=O)cc1 (relative stereo) |
| 35 to 36 | CCCCCC[C@@H]1C[C@H](c2ccc(OC)cc2)C(=O)O1 |
| 145 to 147 | COc1ccc(C2C=C3CCN(Cc4ccccc4)CC3C(CO)C2CO)cc1 (centres undefined) |
| 125 | CN(C)CCN(C)CC(=O)N1c2ccccc2N(C)C(=O)c2cnc(-c3ccccc3)nc21 |
| 45 to 48 | CCOC(=O)Cc1ccc2c(c1)sc1ccc(C)cc12 |
| 221 to 223 | COC(=O)c1ccc(C(=O)NS(=O)(=O)c2ccc(OC(F)(F)F)cc2)cn1 |
| 201 to 203 | CCOC(=O)c1cc(O)n2c(C)nnc2n1 |
| 303 to 306 | Cn1c2ccccc2c2c3c(c4c5cc(O)ccc5n(CCC#N)c4c21)C(=O)NC3=O |
| 205 to 206 | CC(C)S(=O)(=O)c1cccc(-c2nc(=O)c3ccccc3s2)n1 |
| 219 to 222 | Cc1cccc(Nc2cc(Nc3ccc(OCCN(C)C)cc3)ncn2)c1 |
| 98.5 to 99.5 | CSC(C(N)=O)c1ccccc1N (centres undefined) |
| 127 to 128 | c1ccc(-c2nnc(-c3ccccn3)o2)cc1 |
| 156 to 158 | CC1(C)CC(=O)C2=C(C1)NC1=C(C(=O)CC(C)(C)C1)C2c1cccc(OCc2ccncc2)c1 |
| 196 | CN(C)C(=O)C(C#N)=C1Nc2ccccc2O1 |
| 147 to 150 | Nc1cc(=O)n(CC2CCCCC2)c(=S)n1CC1CCCCC1 |
| 147 to 150 | CCCCOc1cc2c(cc1OC)C(c1ccc(OC)c(OC)c1)=NN=C(C)C2CC (centres undefined) |
| 168 to 169 | CNC(=O)Cc1c(C)n(-c2ccnc3cc(Cl)ccc23)c2ccc(OC)cc12 |
| 249 to 250 | O=C(O)C1Cc2ccccc2N1c1ncccn1 (centres undefined) |
| 101 to 102 | CCCCCP(=O)(CC(=O)OC)OCc1ccc(-c2ccccc2C(=O)O)cc1 (centres undefined) |
| 129 to 130 | C=C1CC(COc2cccc3ccc(C)nc23)(c2ccc(Cl)cc2)OC1=O (centres undefined) |
| 138 to 140 | CCOC(=O)c1cnc2[nH]c(-c3cc(OCc4ccccc4)ccc3OC(C)C)nc2c1 |

| melting point [°C] | Compound |
| --- | --- |
| 170 to 172 | COc1cc(OC)c(C=O)cc1I |
| 138 to 140 | COc1cc(C(C)C)c2c(c1)S(=O)(=O)N(COC(=O)c1sccc1Cl)C2=O |
| 200 to 203 | COc1ccc(NC(=O)c2ccc(F)c(F)c2)cc1NC(=S)Nc1ccc(C(=O)O)cc1 |
| 106 to 107 | CCCCCCCCCCCCCCCCCC(O)c1ccc(Cl)c(C(=O)O)c1 (centres undefined) |
| 179 to 181 | O=C(OCc1ccccc1)N1CCC(c2cc3ccccc3c(=O)[nH]2)CC1 |
| 154 to 157 | NC(=O)CC[C@@H](CF)NC(=O)OCc1ccccc1 |
| 285 to 287 | O=c1[nH]c(COc2ccc(Cl)c(Cl)c2)nc2nccnc12 |
| 136 to 137 | CSc1c[nH]c2ccc(C)cc12 |
| 38 to 40 | CCOc1nc(NC(CC)CC)c([N+](=O)[O-])c(OCC)n1 |
| 200 to 201 | NC(=O)C1CCCc2c1c1cc(OCCCP(=O)(O)O)ccc1n2Cc1ccccc1 (centres undefined) |
| 159 to 161 | CCOC(=O)c1c(C)cc2nc(CO)n(-c3ccc4c(c3)OCO4)c(=O)c2c1C |
| 135 to 142 | Cc1noc(NS(=O)(=O)c2ccccc2-c2ccc(-c3ncco3)cc2CN2Cc3ccccc3C2=O)c1C |
| 128 | CCc1c(C)nc2c(O)cccn2c1=O |
| 205 to 207 | Cc1cccc(N2CCN([C@@H](Cc3ccc(OCCc4nc(-c5ccccc5)oc4C)cc3)C(=O)O)CC2)c1 |
| 132 to 134 | O=C(O)CCCCN(C(=O)c1ccc(Cl)cc1)c1ccc2c(c1)CCC2 |
| 200 to 202 | COCC1OC(n2cnc3c(N)nc(Cl)nc32)C(O)C1O (centres undefined) |
| 114 to 116 | CCOC(=O)C(C)(Cc1ccc(O)c(OC)c1)NN (centres undefined) |
| 97 to 98 | CCc1nnc(-c2ccc(F)c(F)c2Nc2ccc(I)cc2F)o1 |
| 212 to 214 | COc1ccc(Cc2n[nH]c(=O)c3ccccc23)cc1N |
| 130 to 134 | CC(C)C[C@H](NC(=O)[C@@H]1CCCN1C(=O)[C@@H](N)CSCc1ccccc1)C(=O)NCC(N)=O |
| 261 to 262 | O=CNc1ncc(C#Cc2ccc(Cl)cc2)c(Sc2ccc(O)cc2)n1 |

The next lines start with the compound.

| Compound | melting point [°C] |
| --- | --- |
| Clc1cc(C(Cl)(Cl)Cl)nc(C(Cl)(Cl)Cl)c1 | 101 to 102 |
| COCCOc1ccccc1S(=O)(=O)NC(=O)Nc1nc(C)nc(OC)n1 | 134 to 138 |
| Cc1cc(O)cnc1Cl | 126 to 128 |
| Clc1ccc(Nc2nc(-c3cccc(Cl)n3)nc3ccccc23)cc1 | 212 to 213 |
| COc1ccc2c3c1OC1C(O)C(CO)(CO)CC4C(C2)N(C)CCC341 (centres undefined) | > 265 |
| Cc1cccc(C(=O)NO)c1N(C)S(=O)(=O)c1ccc(OCCCNC(=O)c2cc3ccccc3o2)cc1 | 148 to 150 |
| CCOC(=O)c1ccc(NC(=O)C=C(c2ccc(C)cc2)c2ccc(C)cc2)cc1 | 151 to 154 |
| O=C(NC1CC1)c1ccccc1SSc1ccccc1C(=O)NC1CC1 | 257 to 259 |
| CCCC(=O)c1cc(-c2ccc(C)cc2)no1 | 86 to 87 |
| COc1ccc(C(CI)(OC)OC)cc1 | 54 to 55 |
| CN(c1ccncc1)N1CCc2cc(O)ccc2C1 | 263 to 266 |
| CC1(C)N=C(c2ccccc2F)c2cc(N)ccc2-n2cnnc21 | 288 |
| O=C(Nc1ccc(F)cc1)Nc1cccc(OCc2ccccc2)c1 | 187 to 189 |
| c1ccc2c(c1)[nH]c1nc(N3CCCC3)nc(N3CCCC3)c12 | 209 to 211 |
| CC(=O)OC1CSC(Oc2cncc(-c3ccncc3Cl)c2)C(OC(C)=O)C1OC(C)=O (centres undefined) | 175 |
| CCCCCCC(C)(C)c1ccc([C@@H]2CC(=O)C[C@H](C)C2)c(O)c1 (relative stereo) | 95 to 98 |
| CCCSc1sc(C(=O)NC)c2c1-c1c(cnn1CC(F)(F)F)CC2 | 75 to 76 |
| Cc1cc(C2CC(C)(C)NC(C)(C)C2)cc(C)c1O | 152 to 154 |
| Cc1cc(C)c2nc(NC3CCN(CCCS(N)(=O)=O)CC3)n(Cc3nc(C)ccc3O)c2c1 | 180 |

| Compound | melting point [°C] |
| --- | --- |
| Cc1ccc2c3c(ccc2n1)OC[C@H](CNCCCc1csc2ccc(F)cc12)O3 | 117 to 120 |
| COC(OC)C(C)Nc1cc(OCc2ccccc2)ccc1[N+](=O)[O-] (centres undefined) | 57 to 62 |
| CC(C)NCC1(O)CCN(c2c(F)cc3c(=O)c(C(=O)O)cn(C4CC4)c3c2F)C1 (centres undefined) | 213 to 214 |
| Cc1c(N(C)C)ccc([N+](=O)[O-])c1CO | 42 to 43 |
| CCOC(=O)C(C)=NNc1ccc(Cl)cc1Cl | 118 to 120 |
| CCNc1nc(C(C)(C)C)nn1-c1c(Cl)cc(C(F)(F)F)cc1Cl | 67 to 70 |
| O=C(Nc1ccc(C(=O)N2C[C@@H]3CCCN3C(=S)c3ccccc32)cc1)c1ccccc1-c1ccccc1 | 234 to 236 |
| CC(=O)NCC(=O)c1cc(OC(C)=O)c(OC(C)=O)c([N+](=O)[O-])c1 | 121 to 124 |
| CN(C(=O)CN(C(=O)CNC(=O)Nc1cccc(/C=C/CO)c1)c1ccccc1)c1ccccc1 | 85 |
| COC(=O)C(C)Oc1ccc(Oc2ncc(Cl)cc2[N+](=O)[O-])cc1 (centres undefined) | 91 to 92 |
| COc1ccc(C=C(CSC(C)=O)C(=O)NCCC(=O)OCc2ccccc2)cc1 | 96 |
| Cc1ccc(NC2CCOC2=O)c(C(=O)O)c1 (centres undefined) | 199 to 200 |
| CCCCCS(=O)(=O)NC(=O)CCc1cc(OC(C)C)nn1Cc1ccc(C(F)(F)F)cc1Cl | 147 to 149 |
| Cc1ccc([N+](=O)[O-])cc1NC(N)=S | 164 to 166 |
| CC(C)(C)OC(=O)N[C@@H](Cc1ccccc1)C(=O)N[C@@H](Cc1ccc(O)c(I)c1)C(=O)OCc1ccccc1 | 81.6 to 82.7 |
| CCCc1nc2ccnn2c(O)c1Cc1ccc(-c2ccccc2C(N)=O)cc1 | 264 |
| Cc1cc(C=O)cc(Oc2nc(Cl)nc(Cl)c2C(C)C)c1 | 227 to 229 |
| NC(=O)c1cc(Cl)c(Sc2ccc(Cl)cc2)c(Cl)c1 | 171 to 174 |
| O=C1CCC(n2cnc(-c3ccc(F)cc3)c2-c2ccnc(OCCO)n2)CC1 | 203 to 205 |

| Compound | melting point [°C] |
| --- | --- |
| OCc1ccc(OCc2csc(-c3ccccc3)n2)nc1 | 134 to 135 |
| COc1ccc2nc3ccc(C(C)=O)cn3c(=O)c2c1 | 194 to 196 |
| CCS(=O)c1c(C#N)nn(-c2c(Cl)cc(C(F)(F)F)cc2Cl)c1NCCSC (centres undefined) | 111 to 113 |
| COc1ccc(C2=NC(C#N)CN2c2ccc(OCc3ccccc3)cc2)cc1 (centres undefined) | 121 to 122 |
| CCN1CCC(C(=O)NO)(S(=O)(=O)c2ccc(OC)cc2)CC1 | 85 |
| COC(OC)C1CN=C(c2cc3cccc(NS(=O)(=O)c4ccccn4)c3[nH]2)S1 (centres undefined) | 153 |
| Cc1cc(C(N)=O)ncc1C(c1c(F)ccc(F)c1F)S(=O)(=O)CCCO (centres undefined) | 148 to 150 |
| COC(=O)C(c1cc2c(cc1Cl)OCO2)c1c[nH]c2cc(Br)ccc12 (centres undefined) | 172 to 174 |
| CN1Cc2c(-c3nc(CN4C(=O)c5ccccc5C4=O)no3)ncn2-c2ccccc2C1=O | 239 to 240 |
| O=C(SCC1C(=O)OCC1c1ccc(Cl)cc1)c1ccccc1 (centres undefined) | 99 to 101 |
| Cc1ccc(C(=O)NCC(O)CO)cc1-n1c(C)cc(OCc2ccccc2CNC(=O)Nc2cc(C(C)(C)C)nn2-c2ccc(O)c(Cl)c2)c(Cl)c1=O (centres undefined) | 173 to 175 |
| CCOC(=O)CC(=O)c1cc(F)c(N2CCNCC2)nc1Nc1ccc(F)cc1F | 121 to 123 |
| COc1ccc(N)cc1C12CC3CC(CC(C3)C1)C2 | 140 to 141 |
| CCOC(=O)C=C(C)Nc1ccc(OC)c(OC)c1 | 57 to 58 |
| C#CCC(NC(=O)c1ccc(C)cc1)C(C)=O (centres undefined) | 65 to 67 |
| COc1ccc2c(c1)CCC1CCNC(=O)C(CC3(C)OCCO3)=C21 (centres undefined) | 192 to 194 |
| Cc1ccc(N2C(=O)C(O)=C(C(=O)c3ccc(-c4ccccn4)cc3)C2c2ccc(OC(F)(F)F)cc2)nn1 (centres undefined) | 247 to 249 |
| CC1=CC(=O)C(=NNc2ccc(C#N)cc2)C(=O)O1 | 300 |
